Data taken from PubChem BioAssay AID1159560 (GlaxoSmithKline (GSK), 2015).
The source made the active and inactive calls. How the calls were made is not given here.

system: Leishmania donovani growth inhibition; test: antileishmanial activity against L. donovani parasites (AID 1159560);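 further: parasites exposed to compound for 72 h before the viability read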

Structure (SMILES) | IC50
O=C(CC1(O)C(=O)N(Cc2cccs2)c2ccc(Br)cc21)c1cccnc1 (stereo not given) | > 50 µM (inactive)
O=C(CC1(O)C(=O)N(Cc2ccccc2)c2ccc(Br)cc21)c1cccnc1 (stereo not given) | > 50 µM (inactive)
Cn1cncc1CN1CCC2(CC1)COC(Cc1ccccc1)C2 (stereo not given) | 13 µM
O=C1CSC(c2cccnc2)N1c1ccc(Cl)cc1Cl (stereo not given) | 5 µM
O=C(Nc1nc(-c2ccccn2)cs1)c1ccccc1-n1cnnn1 | 3.2 µM
Cc1cc(NC(=O)C2CC2)ccc1OC1CCN(Cc2ccco2)CC1 | > 50 µM (inactive)
COc1cc(-c2nc(N3CCOCC3)sc2-c2ccnc(NC3CCOCC3)n2)ccc1Cl | > 50 µM (inactive)
NC(N)=Nc1nc(-c2ccc(NC(N)=NCCN3CCCC3)cc2)cs1 | > 50 µM (inactive)
O=C(Nc1ccc(Br)c(Cl)c1)Nc1ccc2c(c1)OCO2 | > 50 µM (inactive)
O=C(N1CCc2ccccc2CC1)C1(C(=O)N2CCC(n3c(=O)[nH]c4ncccc43)CC2)CC1 | > 50 µM (inactive)
Cc1nc2c(-c3n[nH]c(-c4ccccc4N)n3)cccn2c1C | 6.3 µM
C=CC[C@@H]1CC=C[C@@H](C)N1C(=O)CCc1nnc(-c2ccc3c(c2)OCO3)o1 | 6.3 µM
Nc1nonc1-c1nc2cncc(C(=O)N3CC[C@H](N)C3)c2n1CC1CC1 | > 50 µM (inactive)
O=C(Cc1ccccc1)Nc1[nH]nc2sc(C(=O)NC3CCCC3)cc12 | 4 µM
CCc1cccc(-n2nc(OCC(=O)NC3CCCC3)c3cccnc32)c1 | 2.5 µM
Cc1ccc(NC(=O)c2ccc([N+](=O)[O-])s2)cc1S(=O)(=O)N1CCOCC1 | 2 µM
CCC(=O)Nc1ccc(-c2nc3ccc(Cl)cc3[nH]2)cc1 | > 50 µM (inactive)
Cc1c([N+](=O)[O-])c(C(=O)Nc2sc3c(c2C#N)CCC(C)C3)nn1C (stereo not given) | 25 µM
NC(=O)c1ccsc1NC(=O)c1ccc([N+](=O)[O-])s1 | 0.32 µM
O=C(Nc1ccc(-c2nc3ccccc3c(=O)[nH]2)cc1)c1cccs1 | > 50 µM (inactive)
COc1ccc(NS(=O)(=O)c2cc(NC(=O)c3ccc([N+](=O)[O-])s3)ccc2OC)cc1 | 0.5 µM
O=C(c1ccccc1)N1CCC(C(=O)N2CCC(Oc3ccccc3Cl)CC2)CC1 | > 50 µM (inactive)
O=C(CN(Cc1ccccn1)Cc1ccccn1)NCc1ccc(-c2csnn2)cc1 | 7.9 µM
CN(C)S(=O)(=O)c1ccc(-c2cnc(N)c(-c3nc4ccc(F)cc4[nH]3)c2)cc1 | 2.5 µM
Cc1cc2nc(N3CC[C@H]3C(N)=O)nc(Nc3cc(C4CC4)[nH]n3)c2s1 | 0.79 µM
O=[N+]([O-])c1cccc(Nc2cncc(-c3ccccc3CO)c2)c1 | 40 µM
Cc1[nH]nc(-c2nc3ccccc3[nH]2)c1C(=O)NC1CCCNC1 (stereo not given) | 10 µM

Structure (SMILES) | IC50
FC(F)(F)c1cc(C2CCCN(Cc3c[nH]c4ccccc34)C2)nc2ncnn12 (stereo not given) | > 50 µM (inactive)
CNc1cc(Cn2c(C(=O)c3cc(C)cc(Cl)c3)c(C(C)C)c(=O)[nH]c2=O)ccn1 | > 50 µM (inactive)
CS(=O)(=O)c1ccc(Nc2nccc(Nc3n[nH]c4ccc(F)cc34)n2)c(F)c1 | 13 µM
CCc1cccc(CC)c1-n1c(SCC(=O)NC(=O)NCc2ccco2)nnc1-c1cccnc1 | > 50 µM (inactive)
O=C(NCc1nnc2n1CCCCC2)c1csc(-c2ccccc2)n1 | > 50 µM (inactive)
CN(C(=O)Nc1ccc2c(c1)CCN(C1CCC1)CC2)c1ccc(C#N)cc1 | 40 µM
C[C@@H](Oc1cc(-n2cnc3ccc(CC(O)CO)cc32)sc1C(N)=O)c1ccccc1Cl (stereo not given in full) | 25 µM
Cc1nn(-c2nc3ccccc3[nH]2)c2c1C(c1ccc(O)cc1)CC(=O)N2 (stereo not given) | 0.79 µM
COCc1cnc2c(c1SCc1c(F)cccc1Cl)c(=O)n(C)c(=O)n2C | 4 µM
OC[C@@H](Nc1nccc(-c2c(-c3ccc(F)cc3)ncn2C2CCNCC2)n1)c1ccccc1 | > 50 µM (inactive)
COCCn1c(-c2ccc3c(c2)OCO3)cnc1NCc1ccccc1OC | 13 µM
Cc1cc2cc(CNc3ccc4c(c3)OCO4)c(=O)n(CCO)c2cc1C | 6.3 µM
O=[N+]([O-])c1ccc(C2=CC(c3ccccc3)=NCCN2)cc1 | > 50 µM (inactive)
O=S(=O)(NCC(c1cccnc1)N1CCN(c2ccccc2F)CC1)c1ccc(F)cc1 (stereo not given) | 4 µM
CS(=O)(=O)NC1CCC(Oc2cc3cnccc3cc2-c2ccsc2)CC1 (stereo not given) | 32 µM
CC(=O)Nc1ccc(-c2noc(CC3CCCN(Cc4cccc(F)c4C)C3)n2)cc1 (stereo not given) | 40 µM
Cc1cc2cncn2c(C2CCCCN2C(=O)c2cccs2)n1 (stereo not given) | 0.4 µM
O=C(Nc1nc2ccccc2[nH]1)c1ccc2nc[nH]c2c1 | 2.5 µM
COc1ccc(S(=O)(=O)NC(C)C)cc1Nc1ncc(-c2cccc(F)c2)cn1 | 6.3 µM
CCC(=O)N1N=C(c2ccc3c(c2)CCCC3)Sc2c1ncn2C(=O)CC | 25 µM
O=C(Nc1nc2ccccc2[nH]1)c1c(O)c2cccc3c2n(c1=O)CC3 | 2.5 µM
Cn1nccc1-c1cc(OC(CN)c2ccccc2)cnc1-c1ccco1 (stereo not given) | > 50 µM (inactive)
c1cc(-c2ncc(-c3ccn[nH]3)s2)ccn1 | > 50 µM (inactive)
C[C@@H](Oc1cc(-n2cnc3cc(N)ccc32)sc1C(N)=O)c1ccccc1Cl | 3.2 µM
Cc1cc(NC(=O)c2ccc([N+](=O)[O-])s2)ccc1Br | 3.2 µM
CCNc1cc(-c2ccccn2)nc(Nc2ccccc2)n1 | 2.5 µM
CN(C)S(=O)(=O)c1ccc(Cl)c(C(=O)Nc2nc(-c3ccccn3)cs2)c1 | 2 µM

Structure (SMILES) | IC50
Cc1c(C(C)NC(=O)Nc2cccc(Cl)c2)sc2ncnn12 (stereo not given) | 2 µM
COc1cnc2ccc(=O)n(CCN3CCC(NC(=O)Cc4ccc(Cl)c(Cl)c4)CC3)c2c1 | 5 µM
O=c1ccn(-c2ccc([N+](=O)[O-])cc2Cl)c2ccc(F)cc12 | > 50 µM (inactive)
COc1cc(NC(=O)Nc2cccc(CNC(=O)OC3CCCCC3)c2)ccc1-c1cnco1 | > 50 µM (inactive)
CC(C)(C)c1cc(NC2CC2)nc(-c2ccccn2)n1 | 1.6 µM
Cc1ccccc1OCC(=O)N1CCCN(c2cccnn2)CC1 | 13 µM
Oc1cccnc1-c1n[nH]c(Cc2ccccc2)n1 | 2 µM
CC1CCCCN1C(=O)NCCc1coc(-c2ccc(F)cc2)n1 (stereo not given) | > 50 µM (inactive)
O=C(CN(Cc1ccccn1)Cc1ccccn1)NCc1csc(-c2cccs2)n1 | 13 µM
O=C(c1cc2cc(Cl)ccc2[nH]1)N1CCCCC1c1cccnc1 (stereo not given) | 50 µM
COc1ccc(C(=O)NC2CCN(CCn3c(=O)ccc4ncc(F)cc43)CC2)cc1Cl | 4 µM
COc1ccc(CNc2cc(C3CC3)nc(-c3nccn3C)n2)cc1 | 2 µM
O=C(Nc1n[nH]c(-c2ccccn2)n1)C1CC1c1ccccc1 (stereo not given) | 13 µM
O=C1NCc2cccc(Nc3nc(NC4CCC(O)CC4)ncc3Br)c21 (stereo not given) | 0.79 µM
O=c1[nH]c(NCCCNCc2cc(Br)cc(Br)c2)nc2ccsc12 | 16 µM
COc1cccc(S(=O)(=O)Nc2ccc3c(c2)CC(N2CCC(NC(=O)C4CC4)CC2)C3)c1 (stereo not given) | > 50 µM (inactive)
COc1cccc(NS(=O)(=O)c2ccc3[nH]cc(C(=O)NCCC(C)C)c(=O)c3c2)c1 | > 50 µM (inactive)
COc1ccc(-c2cc(C)no2)cc1S(=O)(=O)Nc1ccc(F)c(Cl)c1 | 25 µM
COc1ccc2nc(N(Cc3cccnc3)C(=O)C3CCC3)sc2c1 | 13 µM
Cc1cccc(N2CCCN(Cc3c[nH]c4ccccc34)CC2)n1 | > 50 µM (inactive)
Cn1c(CN2CCN(c3ncc(C(F)(F)F)cc3Cl)CC2)nc2ccncc21 | 5 µM
CNS(=O)(=O)c1ccccc1Nc1nc(Nc2cc(C)nn2C)ncc1Cl | 0.25 µM
COc1ccc(NS(=O)(=O)c2cc(-c3cc(C)[nH]n3)ccc2C)cc1OC | 1 µM
Cc1ccc(S(C)(=O)=O)cc1Nc1nccc(-c2sc(N)nc2-c2ccccc2)n1 | 3.2 µM
Cc1ccc(S(=O)(=O)Nc2ccc(CN3CCN(C(=O)c4cccc(C#N)c4)CC3)cc2)cc1 | 10 µM
O=S(=O)(c1cccc(CSc2nnc(-c3ccc4c(c3)OCO4)o2)c1)N1CCOCC1 | 0.5 µM
O=c1cc(NCCCNCc2cc(C(F)(F)F)cs2)[nH]c2ccccc12 | > 50 µM (inactive)

Structure (SMILES) | IC50
O=C(CN(Cc1ccccn1)Cc1ccccn1)NCc1ccc2c(c1)OCO2 | 13 µM
O=C(NCCCn1cnc2ccccc21)c1ccc(NC(=O)c2ccco2)cc1 | 1.3 µM
CS(=O)(=O)c1ccccc1C(=O)N(Cc1ccccc1)c1ccccc1 | 16 µM
COc1ccc([N+](=O)[O-])cc1NC(=O)Nc1cccc(Cl)c1 | > 50 µM (inactive)
Cc1nc(-c2ccncc2)ncc1C(C)NC(=O)c1ccc(Cl)s1 (stereo not given) | > 50 µM (inactive)
O=[N+]([O-])c1ccc(-c2nnn(-c3cccnc3)n2)o1 | 16 µM
Cc1cc(N(C)C)nc(Nc2ccccc2C)n1 | > 50 µM (inactive)
CCCc1cc(C(=O)Nc2ncc(-c3cccc(Br)c3)n2C)n[nH]1 | 6.3 µM
CNc1c(C(N)=O)c(-c2ccc3scnc3c2)nn1CC(F)(F)F | > 50 µM (inactive)
COc1ccc(C(=O)N2CCC(Nc3cccnc3)C2)c(OC)n1 (stereo not given) | 16 µM
COCc1cc(Nc2cccc(Cl)c2)nc(-c2ccccn2)n1 | 2.5 µM
CCC(CC)C(=O)Nc1cccc(C(=O)Nc2nnc(C3CCCCC3)s2)c1 | > 50 µM (inactive)
O=C(Nc1cccc(Cl)c1)Nc1ccc([N+](=O)[O-])cc1Cl | 6.3 µM
COc1ccccc1C1CC(c2ccc(NS(C)(=O)=O)cc2)=NN1C(=O)c1cccs1 (stereo not given) | 4 µM
NCC(Cc1ccccc1)NC(=O)c1cnc(-c2c[nH]c3ncccc23)s1 (stereo not given) | > 50 µM (inactive)
O=[N+]([O-])c1ccc(-c2nnn(-c3ccc(Cl)cc3)n2)o1 | 6.3 µM
O=C(NCc1ccc(-n2cccc2)cc1)c1nc(Cn2ccc([N+](=O)[O-])n2)no1 | > 50 µM (inactive)
CC(C)c1nn(-c2nc(N)nc(-c3ccccn3)n2)c(N)c1C1CCCCC1 | 7.9 µM
Cc1ncsc1CNc1cnc(-c2ccc3c(c2)OCCO3)c(-c2cnn(C)c2)c1 | 25 µM
O=C(CN1CCN(c2ccccn2)CC1)Nc1cc(S(=O)(=O)N2CCCCCC2)ccc1Cl | 7.9 µM
O=C(Nc1nc(-c2ccc(S(=O)(=O)N3CCOCC3)cc2)cs1)c1ccc([N+](=O)[O-])cc1 | > 50 µM (inactive)
Cc1ccc(Nc2nc(C3CCCN3Cc3ccn[nH]3)cs2)nc1 (stereo not given) | 13 µM
O=c1cc(CSc2ccc(Cl)cc2)nc(-c2ccccn2)[nH]1 | 1.6 µM
CC(C)(C)C(Cn1ccnc1)NC(=O)c1ccc2nc(C3CC3)oc2c1 (stereo not given) | 20 µM
